US20180002320A1, “USE OF MACROCYCLIC PICOLINAMIDES AS FUNGICIDES” (DOW AGROSCIENCES LLC, priority 2014, published 2018)
Where two headings read alike, the source gives them in different places.

Tests used:
Puccinia triticina = experiment: Wheat Brown Rust (PUCCRT) fungicidal activity; assay type: in vivo; conditions: for pest or weed control at 121.5 g/ha: Low Volume (121.5 g/H); for pest or weed control at 100 µg/mL: High Volume (100 ppm)
Procedure: Technical grades of materials were dissolved in acetone, which were then mixed with nine volumes of H2O containing 110 ppm Triton X-100. The fungicide solutions were applied onto wheat seedlings using an automated booth sprayer to run-off. All sprayed plants were allowed to air dry prior to further handling. All fungicides were evaluated using the aforementioned method for their activity vs. all target diseases, unless stated otherwise. Wheat leaf blotch and brown rust activity were also evaluated using track spray applications, in which case the fungicides were formulated as EC formulations, containing 0.1% Trycol 5941 in the spray solutions. Wheat plants (variety Yuma) were grown from seed in a greenhouse in 50% mineral soil/50% soil-less Metro mix until the first leaf was fully emerged, with 7-10 seedlings per pot. These plants were inoculated with an aqueous spore suspension of Puccinia triticina either prior to or after fungicide treatments. After inoculation the plants were kept in a dark dew room at 22° C. with 100% relative humidity overnight to permit spores to germinate and infect the leaf. The plants were then transferred to a greenhouse set at 24° C. for disease to develop. Fungicide formulation, application and disease assessment followed the procedures as described in the Example A.

Zymoseptoria tritici = experiment: Leaf Blotch of Wheat (SEPTTR) fungicidal activity; assay type: in vivo; conditions: for pest or weed control at 121.5 g/ha: Low Volume (121.5 g/H); for pest or weed control at 100 µg/mL: High Volume (100 ppm)
Procedure: Technical grades of materials were dissolved in acetone, which were then mixed with nine volumes of H2O containing 110 ppm Triton X-100. The fungicide solutions were applied onto wheat seedlings using an automated booth sprayer to run-off. All sprayed plants were allowed to air dry prior to further handling. All fungicides were evaluated using the aforementioned method for their activity vs. all target diseases, unless stated otherwise. Wheat leaf blotch and brown rust activity were also evaluated using track spray applications, in which case the fungicides were formulated as EC formulations, containing 0.1% Trycol 5941 in the spray solutions. Wheat plants (variety Yuma) were grown from seed in a greenhouse in 50% mineral soil/50% soil-less Metro mix until the first leaf was fully emerged, with 7-10 seedlings per pot. These plants were inoculated with an aqueous spore suspension of Zymoseptoria tritici either prior to or after fungicide treatments. After inoculation the plants were kept in 100% relative humidity (one day in a dark dew chamber followed by two to three days in a lighted dew chamber at 20° C.) to permit spores to germinate and infect the leaf. The plants were then transferred to a greenhouse set at 20° C. for disease to develop. When disease symptoms were fully expressed on the 1st leaves of untreated plants, infection levels were assessed on a scale of 0 to 100 percent disease severity. Percent disease control was calculated using the ratio of disease severity on treated plants relative to untreated plants.

[1] = 24 h, 1 Day Protectant, read-out: PUCCRT 1DP disease control
[2] = 72 h, 3 Day Curative, read-out: PUCCRT 3DC disease control
[3] = 24 h, 1 Day Protectant, read-out: SEPTTR 1DP disease control
[4] = 72 h, 3 Day Curative, read-out: SEPTTR 3DC disease control

SMILES | pest or weed control at 121.5 g/ha (Puccinia triticina; [1]) | pest or weed control at 121.5 g/ha (Puccinia triticina; [2]) | pest or weed control at 121.5 g/ha (Zymoseptoria tritici; [3]) | pest or weed control at 121.5 g/ha (Zymoseptoria tritici; [4]) | pest or weed control at 100 µg/mL (Puccinia triticina; [1]) | pest or weed control at 100 µg/mL (Puccinia triticina; [2]) | pest or weed control at 100 µg/mL (Zymoseptoria tritici; [3]) | pest or weed control at 100 µg/mL (Zymoseptoria tritici; [4])
COc1ccnc(C(=O)N[C@H]2CCCC[C@H](CC3CCCC3)[C@@H](OC(=O)C(C)C)[C@H](C)OC2=O)c1OC(C)=O [Compound 56, (2S,3R,4R,9S)-9-(3-acetoxy-4-methoxypicolinamido)-4-(cyclopentylmethyl)-2-methyl-10-oxooxecan-3-yl isobutyrate] | > 80% | < 80% | > 80% | < 80% | – | – | – | –
COc1ccnc(C(=O)N[C@H]2CCCC[C@H](Cc3ccccc3)[C@@H](OCC(C)C)[C@H](C)OC2=O)c1OCOC(C)=O [Compound 24] | > 80% | < 80% | > 80% | > 80% | – | – | – | –
COc1ccnc(C(=O)N[C@H]2CCOC[C@H](Cc3ccccc3)[C@@H](OCC(C)C)[C@H](C)OC2=O)c1OCOC(C)=O [Compound 16] | > 80% | < 80% | < 80% | < 80% | – | – | – | –
COc1ccc(C[C@H]2CCOC[C@H](NC(=O)c3nccc(OC)c3OC(=O)C(C)C)C(=O)O[C@@H](C)[C@@H]2Oc2ccccc2)cc1 [Compound 68] | > 80% | – | < 80% | < 80% | – | – | – | –
COc1ccnc(C(=O)N[C@H]2CCCC[C@H](OC)[C@@H](OC)[C@H](C)OC2=O)c1OC(C)=O [Compound 27] | > 80% | > 80% | < 80% | – | – | – | – | –
COc1ccnc(C(=O)N[C@H]2CCOC[C@H](OC)[C@@H](Oc3ccccc3)[C@H](C)OC2=O)c1OC(C)=O [Compound 48] | > 80% | > 80% | > 80% | > 80% | – | – | – | –
COc1ccnc(C(=O)N[C@H]2CCCC[C@H](OC)[C@@H](OCC(C)C)[C@H](C)OC2=O)c1OC(C)=O [Compound 28] | > 80% | > 80% | < 80% | > 80% | – | – | – | –
COc1ccnc(C(=O)N[C@H]2CCCC[C@H](OCC(C)C)[C@@H](OCC(C)C)[C@H](C)OC2=O)c1OCOC(C)=O [Compound 14] | > 80% | < 80% | > 80% | < 80% | – | – | – | –
COc1ccc(C[C@H]2CCOC[C@H](NC(=O)c3nccc(OC)c3OCOC(=O)C(C)C)C(=O)O[C@@H](C)[C@@H]2Oc2ccccc2)cc1 [Compound 67, ((4-methoxy-2-(((3S,8S,9R,10S)-8-(4-methoxybenzyl)-10-methyl-2-oxo-9-phenoxy-1,5-dioxecan-3-yl)carbamoyl)pyridin-3-yl)oxy)methyl isobutyrate] | > 80% | < 80% | > 80% | < 80% | – | – | – | –
COc1ccnc(C(=O)N[C@H]2COCC[C@H](Cc3ccc(F)cc3)[C@@H](Oc3ccccc3)[C@H](C)OC2=O)c1OC(C)=O [Compound 71] | > 80% | > 80% | > 80% | > 80% | – | – | – | –
CCOCC(=O)OCOc1c(OC)ccnc1C(=O)N[C@H]1CCCC[C@H](CC2CCCC2)[C@@H](Oc2ccccc2)[C@H](C)OC1=O [Compound 51, ((2-(((3S,8R,9R,10S)-8-(cyclopentylmethyl)-10-methyl-2-oxo-9-phenoxyoxecan-3-yl)carbamoyl)-4-methoxypyridin-3-yl)oxy)methyl 2-ethoxyacetate] | > 80% | < 80% | > 80% | – | – | – | – | –
COc1ccc(C[C@H]2CCOC[C@H](NC(=O)c3nccc(OC)c3OC(C)=O)C(=O)O[C@@H](C)[C@@H]2Oc2ccccc2)cc1 [Compound 65] | > 80% | < 80% | > 80% | < 80% | – | – | – | –
COc1ccnc(C(=O)N[C@H]2COCC[C@H](Cc3ccccc3)[C@@H](OCC(C)C)[C@H](C)OC2=O)c1OCOC(C)=O [Compound 20] | > 80% | > 80% | < 80% | > 80% | – | – | – | –
COc1ccnc(C(=O)N[C@H]2CCCC[C@@H]3OC(C)(C)O[C@H]3[C@H](C)OC2=O)c1OCOC(C)=O [Compound 33] | > 80% | > 80% | < 80% | > 80% | – | – | – | –
CC[C@H]1CCOC[C@H](NC(=O)c2nccc(OC)c2OCOC(C)=O)C(=O)O[C@@H](C)[C@@H]1OCC(C)C [Compound 70] | > 80% | > 80% | > 80% | < 80% | – | – | – | –
CC[C@H]1CCOC[C@H](NC(=O)c2nccc(OC)c2OC(C)=O)C(=O)O[C@@H](C)[C@@H]1OC(=O)c1ccccc1 [Compound 80] | > 80% | > 80% | > 80% | < 80% | – | – | – | –
CCCO[C@@H]1[C@@H](CC2CCCC2)CCCC[C@H](NC(=O)c2nccc(OC)c2OC(C)=O)C(=O)O[C@H]1C [Compound 58] | > 80% | < 80% | < 80% | < 80% | – | – | – | –
COc1ccnc(C(=O)N[C@H]2COCC[C@H](Cc3ccc(F)cc3)[C@@H](OCC3CC3)[C@H](C)OC2=O)c1OC(C)=O [Compound 77] | > 80% | > 80% | > 80% | < 80% | – | – | – | –
COc1ccnc(C(=O)N[C@H]2COCC[C@H](Cc3ccccc3)[C@@H](OCC(C)C)[C@H](C)OC2=O)c1OC(C)=O [Compound 21] | > 80% | > 80% | < 80% | > 80% | – | – | – | –
COc1ccnc(C(=O)N[C@H]2COCCC[C@@H](CCC(C)C)[C@H](C)OC2=O)c1O [Compound 112] | – | – | – | – | < 80% | < 80% | < 80% | < 80%
COc1ccnc(C(=O)N[C@H]2CCCC[C@H](OCc3ccccc3)[C@@H](OCc3ccccc3)[C@H](C)OC2=O)c1OC(C)=O [Compound 9] | > 80% | < 80% | > 80% | > 80% | – | – | – | –
CC(=O)OCOc1cccnc1C(=O)N[C@H]1CCCC[C@H](CC2CCCC2)[C@@H](Oc2ccccc2)[C@H](C)OC1=O [Compound 49] | > 80% | < 80% | < 80% | – | – | – | – | –
COc1ccnc(C(=O)N[C@H]2CCCC[C@H](CC3CCCC3)[C@@H](OC)[C@H](C)OC2=O)c1OCOC(C)=O [Compound 61] | > 80% | > 80% | < 80% | < 80% | – | – | – | –
CC[C@H]1CCOC[C@H](NC(=O)c2nccc(OC)c2OCOC(C)=O)C(=O)O[C@@H](C)[C@@H]1OC(=O)C1CC1 [Compound 79] | > 80% | > 80% | > 80% | – | – | – | – | –
COc1ccnc(C(=O)N[C@H]2COCC[C@H](Cc3ccc(F)cc3)[C@@H](OCC3CC3)[C@H](C)OC2=O)c1OCOC(C)=O [Compound 74] | > 80% | > 80% | > 80% | < 80% | – | – | – | –
COc1ccnc(C(=O)N[C@H]2CCCC[C@H](Oc3ccccc3)[C@@H](OC3CCCC3)[C@H](C)OC2=O)c1OCOC(C)=O [Compound 36] | > 80% | > 80% | < 80% | < 80% | – | – | – | –
